Assay results reported in PubChem BioAssay (NCI).
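The compound was tested at five concentrations on cells cultured in 96-well plates, with a 48-hour exposure period. The concentration for full growth arrest is given as TGI.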 *1 amine or outer side, *2 acyl side, *3 side chain or, on linkers, in order; H or OH if unused. Where a SMILES comes first, the peptide text is derived from it. Bridges are numbered along the chain shown (N, C = ends). Roman numbers before positions name the chains, in order. [ ]: non-standard residue; d: D form. ξ: configuration not given here. X54 = N=C(N)NCCC[C@@H](NC(=N)CCCCCCC(=N)N[C@H](CCCNC(=N)N)C(=O)[*:2])C(=O)[*:1]; dIgl = N[C@@H](C(=O)O)C1Cc2ccccc2C1; Hyp = O=C(O)[C@@H]1C[C@@H](O)CN1; ξIgl = NC(C(=O)O)C1Cc2ccccc2C1; ξOic = O=C(O)C1CC2CCCCC2N1; ξR = N=C(N)NCCCC(N)C(=O)O; ξP = O=C(O)C1CCCN1; ξS = NC(CO)C(=O)O

Assays:
Assay in all cases: NCI tumour cell line growth inhibition, 48 h
NCI-H460 lung = tested on: NCI-H460 lung
HT29 colon = tested on: HT29 colon
TK-10 renal = tested on: TK-10 renal
T-47D breast = tested on: T-47D breast
OVCAR-8 ovarian = tested on: OVCAR-8 ovarian
SN12C renal = tested on: SN12C renal
HCT-116 colon = tested on: HCT-116 colon
BT-549 breast = tested on: BT-549 breast
MCF7 breast = tested on: MCF7 breast
NCI/ADR-RES ovarian = tested on: NCI/ADR-RES ovarian
SK-MEL-5 melanoma = tested on: SK-MEL-5 melanoma
CAKI-1 renal = tested on: CAKI-1 renal
UO-31 renal = tested on: UO-31 renal
U251 CNS = tested on: U251 CNS
SW-620 colon = tested on: SW-620 colon
HCC-2998 colon = tested on: HCC-2998 colon
K-562 leukemia = tested on: K-562 leukemia
COLO 205 colon = tested on: COLO 205 colon
DU-145 prostate = tested on: DU-145 prostate
PC-3 prostate = tested on: PC-3 prostate
HS 578T breast = tested on: HS 578T breast
OVCAR-4 ovarian = tested on: OVCAR-4 ovarian
HOP-62 NSCLC = tested on: HOP-62 NSCLC
A549 NSCLC = tested on: A549 NSCLC
LOX IMVI melanoma = tested on: LOX IMVI melanoma
RXF 393 renal = tested on: RXF 393 renal
SK-MEL-28 melanoma = tested on: SK-MEL-28 melanoma
NCI-H522 lung = tested on: NCI-H522 lung
SF-268 CNS = tested on: SF-268 CNS
HL-60(TB) leukemia = tested on: HL-60(TB) leukemia
RPMI-8226 leukemia = tested on: RPMI-8226 leukemia
UACC-62 melanoma = tested on: UACC-62 melanoma
MALME-3M melanoma = tested on: MALME-3M melanoma
ACHN renal = tested on: ACHN renal
SR leukemia = tested on: SR leukemia
MOLT-4 leukemia = tested on: MOLT-4 leukemia
HCT-15 colon = tested on: HCT-15 colon
NCI-H226 lung = tested on: NCI-H226 lung
SK-OV-3 ovarian = tested on: SK-OV-3 ovarian
MDA-N = tested on: MDA-N
UACC-257 melanoma = tested on: UACC-257 melanoma
KM12 colon = tested on: KM12 colon
SNB-19 CNS = tested on: SNB-19 CNS
CCRF-CEM leukemia = tested on: CCRF-CEM leukemia
OVCAR-5 ovarian = tested on: OVCAR-5 ovarian
M14 melanoma = tested on: M14 melanoma
786-0 renal = tested on: 786-0 renal
EKVX NSCLC = tested on: EKVX NSCLC
MDA-MB-231 breast = tested on: MDA-MB-231 breast
SF-539 CNS = tested on: SF-539 CNS
SNB-75 CNS = tested on: SNB-75 CNS
NCI-H23 lung = tested on: NCI-H23 lung
SK-MEL-2 melanoma = tested on: SK-MEL-2 melanoma
IGROV1 ovarian = tested on: IGROV1 ovarian
OVCAR-3 ovarian = tested on: OVCAR-3 ovarian
MDA-MB-435 = tested on: MDA-MB-435
SF-295 CNS = tested on: SF-295 CNS
HOP-92 NSCLC = tested on: HOP-92 NSCLC

Q: Which results are given for `O=P(O)(O)c1ccc(-c2ccc(I)cc2)cc1`?
A: TGI (NCI-H460 lung): > 100 µM; TGI (HT29 colon): > 100 µM; TGI (TK-10 renal): > 100 µM; TGI (T-47D breast): > 100 µM; TGI (OVCAR-8 ovarian): > 100 µM; TGI (SN12C renal): > 100 µM; TGI (HCT-116 colon): > 100 µM; TGI (BT-549 breast): > 100 µM; TGI (MCF7 breast): > 100 µM; TGI (NCI/ADR-RES ovarian): > 100 µM; TGI (SK-MEL-5 melanoma): > 100 µM; TGI (CAKI-1 renal): > 100 µM; TGI (UO-31 renal): > 100 µM; TGI (U251 CNS): > 100 µM; TGI (SW-620 colon): > 100 µM; TGI (HCC-2998 colon): > 100 µM; TGI (K-562 leukemia): > 100 µM; TGI (COLO 205 colon): > 100 µM; TGI (DU-145 prostate): > 100 µM; TGI (PC-3 prostate): > 100 µM; TGI (HS 578T breast): > 100 µM; TGI (OVCAR-4 ovarian): > 100 µM; TGI (HOP-62 NSCLC): > 100 µM; TGI (A549 NSCLC): > 100 µM; TGI (LOX IMVI melanoma): > 100 µM; TGI (RXF 393 renal): > 100 µM; TGI (SK-MEL-28 melanoma): > 100 µM; TGI (NCI-H522 lung): > 100 µM; TGI (SF-268 CNS): > 100 µM; TGI (HL-60(TB) leukemia): > 100 µM; TGI (RPMI-8226 leukemia): > 100 µM; TGI (UACC-62 melanoma): > 100 µM; TGI (MALME-3M melanoma): > 100 µM; TGI (ACHN renal): > 100 µM; TGI (SR leukemia): > 100 µM; TGI (MOLT-4 leukemia): > 100 µM; TGI (HCT-15 colon): > 100 µM; TGI (NCI-H226 lung): > 100 µM; TGI (SK-OV-3 ovarian): > 100 µM; TGI (MDA-N): > 100 µM; TGI (UACC-257 melanoma): > 100 µM; TGI (KM12 colon): > 100 µM; TGI (SNB-19 CNS): > 100 µM; TGI (CCRF-CEM leukemia): > 100 µM; TGI (OVCAR-5 ovarian): > 100 µM; TGI (M14 melanoma): > 100 µM; TGI (786-0 renal): > 100 µM; TGI (EKVX NSCLC): > 100 µM; TGI (MDA-MB-231 breast): > 100 µM; TGI (SF-539 CNS): > 100 µM; TGI (SNB-75 CNS): > 100 µM; TGI (NCI-H23 lung): > 100 µM; TGI (SK-MEL-2 melanoma): > 100 µM; TGI (IGROV1 ovarian): > 100 µM

Q: How did the TGI (NCI-H460 lung) turn out when `N=C(N)NCCCC(NC(=O)C1CC2CCCCC2N1C(=O)[C@H](NC(=O)C(CO)NC(=O)C(NC(=O)CNC(=O)[C@@H]1C[C@@H](O)CN1C(=O)C1CCCN1C(=O)C(CCCNC(=N)N)NC(=O)[C@@H](CCCNC(=N)N)NC(=N)CCCCCCC(=N)N[C@H](CCCNC(=N)N)C(=O)NC(CCCNC(=N)N)C(=O)N1CCCC1C(=O)N1C[C@H](O)C[C@H]1C(=O)NCC(=O)NC(C(=O)NC(CO)C(=O)N[C@@H](C(=O)N1C(C(=O)NC(CCCNC(=N)N)C(=O)O)CC2CCCCC21)C1Cc2ccccc2C1)C1Cc2ccccc2C1)C1Cc2ccccc2C1)C1Cc2ccccc2C1)C(=O)O` (some centres not stated) (I: [ξR][ξP][Hyp]G[ξIgl][ξS][dIgl][ξOic][ξR]-OH / II: [ξR][ξP][Hyp]G[ξIgl][ξS][dIgl][ξOic][ξR]-OH; linker I:N-II:N via X54) was run?
A: The TGI was 3.87 µM.

Q: What about the TGI (OVCAR-3 ovarian) of the same compound?
A: Its TGI is 3.4 µM.

Q: What about the TGI (HT29 colon) of the same compound?
A: Its TGI is 2.12 µM.

Q: And the TGI (TK-10 renal)?
A: The TGI was 8.95 µM.

Q: And the TGI (T-47D breast)?
A: Its TGI is 4.42 µM.

Q: What about the TGI (SN12C renal) of the same compound?
A: The TGI was 4.16 µM.

Q: What about the TGI (HCT-116 colon) of the same compound?
A: The TGI was greater than 10 µM.

Q: What about the TGI (MCF7 breast) of the same compound?
A: The TGI was 4.04 µM.

Q: And the TGI (NCI/ADR-RES ovarian)?
A: The TGI was greater than 10 µM.

Q: And the TGI (SK-MEL-5 melanoma)?
A: The TGI was 3.62 µM.

Q: What about the TGI (CAKI-1 renal) of the same compound?
A: Its TGI is 3.71 µM.

Q: And the TGI (UO-31 renal)?
A: Its TGI is greater than 10 µM.

Q: And the TGI (U251 CNS)?
A: The TGI was 5.35 µM.

Q: What about the TGI (SW-620 colon) of the same compound?
A: The TGI was 6.35 µM.

Q: What about the TGI (MDA-MB-435) of the same compound?
A: The TGI was 4.18 µM.

Q: And the TGI (K-562 leukemia)?
A: The TGI was 4.03 µM.

Q: And the TGI (COLO 205 colon)?
A: The TGI was 3.28 µM.

Q: What about the TGI (DU-145 prostate) of the same compound?
A: Its TGI is 3.06 µM.

Q: And the TGI (PC-3 prostate)?
A: The TGI was 3.59 µM.

Q: And the TGI (HS 578T breast)?
A: The TGI was 6.82 µM.

Q: What about the TGI (OVCAR-4 ovarian) of the same compound?
A: The TGI was 4.56 µM.

Q: And the TGI (HOP-62 NSCLC)?
A: The TGI was 5.64 µM.

Q: What about the TGI (A549 NSCLC) of the same compound?
A: The TGI was greater than 10 µM.

Q: What about the TGI (LOX IMVI melanoma) of the same compound?
A: Its TGI is 4.94 µM.

Q: What about the TGI (RXF 393 renal) of the same compound?
A: The TGI was 3.02 µM.

Q: And the TGI (SK-MEL-28 melanoma)?
A: The TGI was 3.64 µM.

Q: And the TGI (NCI-H522 lung)?
A: Its TGI is greater than 10 µM.

Q: What about the TGI (SF-268 CNS) of the same compound?
A: Its TGI is 3.82 µM.

Q: What about the TGI (HL-60(TB) leukemia) of the same compound?
A: Its TGI is 0.409 µM.

Q: And the TGI (RPMI-8226 leukemia)?
A: Its TGI is 4.48 µM.

Q: And the TGI (UACC-62 melanoma)?
A: The TGI was 3.72 µM.

Q: And the TGI (MALME-3M melanoma)?
A: The TGI was 5.1 µM.

Q: What about the TGI (ACHN renal) of the same compound?
A: The TGI was 3.91 µM.

Q: And the TGI (SR leukemia)?
A: Its TGI is 2.95 µM.

Q: What about the TGI (MOLT-4 leukemia) of the same compound?
A: Its TGI is 2.89 µM.

Q: What about the TGI (HCT-15 colon) of the same compound?
A: Its TGI is 4.64 µM.

Q: And the TGI (SK-OV-3 ovarian)?
A: The TGI was 3.74 µM.

Q: What about the TGI (MDA-N) of the same compound?
A: Its TGI is 5.23 µM.

Q: And the TGI (UACC-257 melanoma)?
A: Its TGI is greater than 10 µM.

Q: What about the TGI (KM12 colon) of the same compound?
A: Its TGI is 4.13 µM.

Q: What about the TGI (SNB-19 CNS) of the same compound?
A: The TGI was 5.49 µM.

Q: And the TGI (CCRF-CEM leukemia)?
A: The TGI was 8.81 µM.

Q: What about the TGI (OVCAR-5 ovarian) of the same compound?
A: Its TGI is greater than 10 µM.

Q: What about the TGI (M14 melanoma) of the same compound?
A: The TGI was 7.23 µM.

Q: What about the TGI (SF-295 CNS) of the same compound?
A: Its TGI is 4.3 µM.

Q: And the TGI (786-0 renal)?
A: Its TGI is 5.07 µM.

Q: And the TGI (EKVX NSCLC)?
A: Its TGI is 3.67 µM.

Q: What about the TGI (HOP-92 NSCLC) of the same compound?
A: Its TGI is 4.71 µM.

Q: What about the TGI (MDA-MB-231 breast) of the same compound?
A: The TGI was 3.49 µM.

Q: And the TGI (SF-539 CNS)?
A: The TGI was 5.32 µM.

Q: What about the TGI (NCI-H23 lung) of the same compound?
A: The TGI was 4.17 µM.

Q: What about the TGI (SK-MEL-2 melanoma) of the same compound?
A: Its TGI is 6.77 µM.

Q: And the TGI (IGROV1 ovarian)?
A: The TGI was greater than 10 µM.
